{
  "source": "patent US20110151020A1",
  "about": "“ACTIVE SUBSTANCE COMBINATION WITH GEMCITABINE FOR THE TREATMENT OF EPITHELIAL CANCER” (priority 2008, published 2011)",
  "key": {"[1]": {"tested_on": "primary human pancreatic cancer tissue", "test": "In vivo treatment of implanted patient pancreatic tumor tissue with gemcitabine plus SB431542", "parameters": "species or system mice", "conditions": "treatment from day 7, assessed day 28", "method": "FIG. 33: In vivo treatment with the Alk4/7 inhibitor SB431542. This illustrates Nodal/Activin inhibition to eliminate primary human pancreatic CSC in vivo. Tumor tissue from patient with pancreatic cancer was implanted into immunocompromised mice. Treatment was started on day 7 after implantation. Mice were randomized to gemcitabine alone or gemcitabine plus SB431542. Tumor growth was assessed on day 28."}, "[2]": {"tested_on": "L3.6pl pancreatic cancer cells", "test": "Tumorigenicity after in vitro pre-treatment and orthotopic implantation", "format": "in vivo, mice", "method": "After 96 hours of pretreatment, the remaining viable cells were orthotopically implanted into the pancreas of mice, which received no further treatment in vivo.\nCultivated pancreatic cancer cells were exposed to either Gemcitabine alone representing clinical standard therapy, SB431542 alone, or a combination of Gemcitabine and SB431542 in the above given respective concentrations. After 96 hours of pretreatment, the remaining viable cells were orthotopically implanted into the pancreas of mice, which received no further treatment in vivo.\nA prerequisite of CSC is their ability to form tumours in secondary recipients. Due to the limited number of cancer (stem) cells that can be obtained from primary tissues, it is virtually impossible to reproducibly perform in vivo treatment experiments with fresh patient-derived cells. Therefore, all subsequent in vivo experiments were performed with the established L3.6pl pancreatic cancer cells. The design of the experiment is illustrated in FIG. 20A. […] After 4 days of pretreatment, the surviving cells were orthotopically implanted into the pancreas, which received no further in vivo treatment. Tumorigenicity was first determined by PET scans on day 30 (FIGS. 20B, 20C; left panel) and by final macroscopic and microscopic histological evaluation on day 35 (FIGS. 20B, 20C; right panel).\nAnimals and Orthotopic Implantation of Tumour Cells. Single-cell suspensions were orthotopically implanted into the pancreas of female NMRI nu/nu mice (Janvier, Le Genest-Saint-Isle, France) (Hermann et al., 2007, supra). Size and weight of the pancreatic tumours were monitored.\n(§1) In vitro treatment of pancreatic cancer cells. […] For the evaluation of the in vivo tumorigenicity, […] L3.6pl cells were pretreated with the respective regimen and the remaining viable cells were orthotopically implanted into the pancreas of nude mice and evaluated on day 35. For the systemic infusion assay, cells were labelled with the Qtracker 800 labelling kit (Invitrogen) according to the manufacturer's instructions, and 5×10^5 cells were injected intravenously into mice. After 4 weeks, explanted lungs were scanned for metastases with a near-infrared imaging platform (Odyssey, Li-cor, Lincoln, Nebr.). Positive signals were verified by histology (H&E staining)."}, "pancreatic CSC spheres": {"tested_on": "pancreatic CSC spheres", "test": "CSC-enriched tumour sphere assay", "format": "cell-based, human", "conditions": "ultra low adhesion 6-well plates", "method": "First, pancreatic CSC were clonally expanded as CSC-enriched spheres (FIGS. 18C1-18C5). Floating spheres were treated in ultra low adhesion 6-well plates. After completion of the treatment, five randomly selected high-power fields were analyzed.\n(§2) Human pancreatic cancer cell line. The highly metastatic human pancreatic cell line L3.6pl was maintained in DMEM medium (Invitrogen, Karlsruhe, Germany) with 12% Fetal Calf Serum (Biochrom, Berlin, Germany), Glutamax (Invitrogen), non-essential amino acids, and vitamins (all from PAN, Aidenbach, Germany) (Hermann et al., 2007, supra). Cultures were kept no longer than 4 weeks after recovery from frozen stocks. CSC spheres were cultured in DMEM-F12 supplemented with B27 (Gibco, Karlsruhe, Germany) and FGF-2 (PeproTech EC, London, United Kingdom) (Hermann et al., 2007, supra)."}, "[3]": {"tested_on": "primary human pancreatic cancer cells", "test": "CSC content by flow cytometry in primary pancreatic cancer cells from patients", "format": "cell-based", "conditions": "freshly isolated primary pancreatic cancer cells", "method": "The findings from Examples 1.1 and 1.2 in tumour cell lines were reproduced in primary patient tissue with viability tested with propidium iodide (FIGS. 4A-4D).\nThe findings from Examples 2.1 in tumour cell lines were reproduced in fresh primary tumour cells from patients with pancreatic cancer with viability tested with propidium iodide (FIGS. 13A-13D). In vitro treatment with the combined therapy of 100 ng/ml Gemcitabine and 5 μM SB431542 led to the elimination of CD 133^+ cancer stem cells.\nPrimary human pancreatic cancer cells. Human pancreatic cancers were obtained with written informed consent from all patients. Tissue fragments were minced with scissors into small (1-2 mm^3) fragments. Enzymatic digestion was performed using a mixture of DMEM medium and collagenase (Stem Cell Technologies, Vancouver, Canada) for 90 min at 37° C. (Hermann et al., 2007, supra).\nCytometry. Pancreatic CSC were identified by CD133/1-APC or CD133-PE (Miltenyi, Bergisch-Gladbach, Germany) (Hermann et al., 2007, supra). Side population experiments were performed as described by Goodell et al. (1996) (see Goodell et al., 1996, J Exp Med 183, 1797-1806) and cells were identified by exclusion of the vital dye Hoechst 33342. […]"}, "pancreatic cancer cells": {"tested_on": "pancreatic cancer cells", "test": "Transmigration assay (modified Boyden chamber, SDF-1 stimulus)", "format": "cell-based, human", "conditions": "SDF-1 as migratory stimulus"}, "[4]": {"tested_on": "pretreated Qtracker-labeled pancreatic cancer cells", "test": "Systemic infusion assay of pretreated cells (lung metastasis)", "format": "in vivo, mice", "conditions": "cells pretreated in vitro, systemically infused; lungs scanned", "text": "Recently, the inventors have shown that the chemokine receptor CXCR4 and its specific lig- and Stromal-Derived Factor-1 (SDF-1) plays a pivotal role in metastasis of pancreatic CSC (see Hermann et al., 2007, supra). […] Pretreated and Qtracker-labeled cells were systemically infused. Seeded cells were tracked using near infrared scanning of the lungs as the primary target organ. Positive signals were confirmed by histological analysis.\nas §1"}, "[5]": {"tested_on": "CD133+ pancreatic cancer stem cells (L3.6pl cells)", "test": "CD133 content by flow cytometry in L3.6pl pancreatic cancer cells", "format": "cell-based, human", "conditions": "48 hours of therapy; Gemcitabine 100 ng/ml", "method": "In this experiment, potentially effective substances for the targeted elimination of CD133^+ pancreatic cancer stem cells (CSC) were screened by means of flow cytometry following 48 hours of therapy. […] As a Gemcitabine concentration of 100 ng/ml was the lowest concentration capable of achieving a strong relative enrichment for CD133^+ cells through depletion of CD133^− cells, this concentration was chosen for subsequent experiments.\nas §2\nCytometry. Pancreatic CSC were identified by CD133/1-APC or CD133-PE (Miltenyi, Bergisch-Gladbach, Germany) (Hermann et al., 2007, supra). Side population experiments were performed as described by Goodell et al. (1996) (see Goodell et al., 1996, J Exp Med 183, 1797-1806) and cells were identified by exclusion of the vital dye Hoechst 33342. To detect activation of the PI3K/Akt/mTOR pathway by means of the phosphorylation status of the s6 ribosomal protein (s6rp), cells cultivated with standard medium were stained with a rabbit anti-phospho-S6 ribosomal protein antibody (Cell Signalling Technology, Danvers, Mass.).\nas §1\nUsing SB431542, a specific inhibitor of the receptors for Nodal and Activin, ALK-4 and -7 respectively, it was investigated whether the content of the CD133(+) population is affected by inhibition of Activin/Nodal signaling. As mutations affecting the TGF-superfamily pathway are very common in pancreatic neoplasms, pancreatic cell lines harboring different mutations in this pathway were screened (Table 1)."}},
  "data": [
    {"smiles": "Nc1ccn(C2OC(CO)C(O)C2(F)F)c(=O)n1", "note": "(centres unmarked) [Gemcitabine, 4-amino-1-[3,3-difluoro-4-hydroxy-5-(hydroxymethyl)tetrahydrofuran-2-yl]-1H-pyrimidin-2-one]", "values": [
      {"measurement": "tumor response / regression", "setting": "[1]", "value": "strong response"},
      {"measurement": "tumour take rate / tumorigenicity", "setting": "[2]; 4 days of pretreatment, PET day 30, histology day 35", "value": "did not generate any effect"},
      {"measurement": "tumorigenicity after in vitro pre-treatment", "setting": "[2]; 96 hours pretreatment, 100 ng/ml Gemcitabine, 5 μM SB431542", "value": "close to no effect"},
      {"measurement": "tumour spheres / CD133+ cells in CSC-enriched spheres", "setting": "pancreatic CSC spheres", "value": "marked relative increase of CD133^+ cells"},
      {"measurement": "CSC fraction (CD133+ and CD24+CD44+EpCAM+ populations)", "setting": "[3]", "value": "tended to relatively enrich"},
      {"measurement": "migratory activity", "setting": "pancreatic cancer cells", "value": "unable to significantly reduce"},
      {"measurement": "metastatic activity in vivo", "setting": "[4]", "value": "all mice receiving Gemcitabine-pretreated cells showed evidence for metastasis"},
      {"measurement": "CD133+ cell content", "setting": "[5]", "value": "marked enrichment"}
    ]}
  ]
}
